Test results as given in the supplement of paper PMC11208160.

Assay: recombinant barcode read abundance after kanamycin selection (control-corrected) (log10(CPM+1)); higher = more efficient recombination; sequences stand for … in AGTGCAGAGAAAATCGGCCAGTTTTCTCTGCCTGCAGTCCGCATGCCGT…ATTTATGCAGCGGACTGCCTTTCTCCCAAAGTGATAAACCGGACAGTATCATGGACCGGTTTTCCCGGTAATCCGTATTTGCAAGGTTGGTTTCACT; site = the 11-nt target
Procedure: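 Same pooled E. coli target screen (IS621 bridge recombinase, kanamycin selection, control-corrected CPM, mean of 2 biological replicates). Here the two core-binding nucleotides of the LTG and RTG of the bridge RNA target-binding loop are mutated. Target and donor CT cores are held constant, and the other 9 guide positions match the target. The target is read from the library oligo sequence. Molecule = full bridge RNA written as DNA: nt 1-80 from the library oligo, rest WT scaffold.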

Row | Sequence | recombinant barcode read abundance (log10)
1 | AAACAGTGATGGGTTCTAACCTGTTGCCTAG [AAACAGTCTAG_LTGcore_GA_RTGcore_CT] (site AAACAGTCTAG) (LTG core: GA, RTG core: CT) | 0.192
2 | AAACAGTGATGGGTTCTAACCTGTTGCCTTC [AAACAGTCTAG_LTGcore_GA_RTGcore_GA] (site AAACAGTCTAG) (LTG core: GA, RTG core: GA) | 0.0385
3 | AAACAGTGGTGGGTTCTAACCTGTTGCCTAG [AAACAGTCTAG_LTGcore_GG_RTGcore_CT] (site AAACAGTCTAG) (LTG core: GG, RTG core: CT) | 0.0371
4 | AAACAGTTGTGGGTTCTAACCTGTTGCCTCA [AAACAGTCTAG_LTGcore_TG_RTGcore_TG] (site AAACAGTCTAG) (LTG core: TG, RTG core: TG) | 0.0424
5 | AAACAGTTTTGGGTTCTAACCTGTTGCCTAG [AAACAGTCTAG_LTGcore_TT_RTGcore_CT] (site AAACAGTCTAG) (LTG core: TT, RTG core: CT) | 0.109
6 | AAACATGAATGGGTTCTAACCTGTTGCCTAG [AAACATGCTAG_LTGcore_AA_RTGcore_CT] (site AAACATGCTAG) (LTG core: AA, RTG core: CT) | 0
7 | AAACATGACTGGGTTCTAACCTGTTGCCTGT [AAACATGCTAG_LTGcore_AC_RTGcore_AC] (site AAACATGCTAG) (LTG core: AC, RTG core: AC) | 0.123
8 | AAACATGCTTGGGTTCTAACCTGTTGCCTAC [AAACATGCTAG_LTGcore_CT_RTGcore_GT] (site AAACATGCTAG) (LTG core: CT, RTG core: GT) | 1.05
9 | AAACATGCTTGGGTTCTAACCTGTTGCCTGC [AAACATGCTAG_LTGcore_CT_RTGcore_GC] (site AAACATGCTAG) (LTG core: CT, RTG core: GC) | 0.756
10 | AAACATGCTTGGGTTCTAACCTGTTGCCTTA [AAACATGCTAG_LTGcore_CT_RTGcore_TA] (site AAACATGCTAG) (LTG core: CT, RTG core: TA) | 0.485
11 | AAACATGCTTGGGTTCTAACCTGTTGCCTTT [AAACATGCTAG_LTGcore_CT_RTGcore_AA] (site AAACATGCTAG) (LTG core: CT, RTG core: AA) | 0.865
12 | AAACATGGGTGGGTTCTAACCTGTTGCCTCC [AAACATGCTAG_LTGcore_GG_RTGcore_GG] (site AAACATGCTAG) (LTG core: GG, RTG core: GG) | 0.137
13 | AAACATGTGTGGGTTCTAACCTGTTGCCTCA [AAACATGCTAG_LTGcore_TG_RTGcore_TG] (site AAACATGCTAG) (LTG core: TG, RTG core: TG) | 0.015
14 | ACGGGACATTGGGTTCTAACCTGTTGCAGAG [ACGGGACCTCT_LTGcore_AT_RTGcore_CT] (site ACGGGACCTCT) (LTG core: AT, RTG core: CT) | 0.0817
15 | ACGGGACCGTGGGTTCTAACCTGTTGCAGAG [ACGGGACCTCT_LTGcore_CG_RTGcore_CT] (site ACGGGACCTCT) (LTG core: CG, RTG core: CT) | 1.86
16 | ACGGGACCTTGGGTTCTAACCTGTTGCAGCA [ACGGGACCTCT_LTGcore_CT_RTGcore_TG] (site ACGGGACCTCT) (LTG core: CT, RTG core: TG) | 0.0129
17 | ACGGGACCTTGGGTTCTAACCTGTTGCAGGT [ACGGGACCTCT_LTGcore_CT_RTGcore_AC] (site ACGGGACCTCT) (LTG core: CT, RTG core: AC) | 0.534
18 | ACGGGACCTTGGGTTCTAACCTGTTGCAGTC [ACGGGACCTCT_LTGcore_CT_RTGcore_GA] (site ACGGGACCTCT) (LTG core: CT, RTG core: GA) | 0.425
19 | ACGGGACGTTGGGTTCTAACCTGTTGCAGAG [ACGGGACCTCT_LTGcore_GT_RTGcore_CT] (site ACGGGACCTCT) (LTG core: GT, RTG core: CT) | 0.463
20 | ACGGGACTATGGGTTCTAACCTGTTGCAGAG [ACGGGACCTCT_LTGcore_TA_RTGcore_CT] (site ACGGGACCTCT) (LTG core: TA, RTG core: CT) | 0.0145
21 | ACGGGACTCTGGGTTCTAACCTGTTGCAGGA [ACGGGACCTCT_LTGcore_TC_RTGcore_TC] (site ACGGGACCTCT) (LTG core: TC, RTG core: TC) | 0

Row | Sequence | recombinant barcode read abundance (log10)
22 | AGGAGGTACTGGGTTCTAACCTGTTGCCTGT [AGGAGGTCTAG_LTGcore_AC_RTGcore_AC] (site AGGAGGTCTAG) (LTG core: AC, RTG core: AC) | 0.183
23 | AGGAGGTATTGGGTTCTAACCTGTTGCCTAT [AGGAGGTCTAG_LTGcore_AT_RTGcore_AT] (site AGGAGGTCTAG) (LTG core: AT, RTG core: AT) | 0.643
24 | AGGAGGTCATGGGTTCTAACCTGTTGCCTAG [AGGAGGTCTAG_LTGcore_CA_RTGcore_CT] (site AGGAGGTCTAG) (LTG core: CA, RTG core: CT) | 0.207
25 | AGGAGGTCATGGGTTCTAACCTGTTGCCTTG [AGGAGGTCTAG_LTGcore_CA_RTGcore_CA] (site AGGAGGTCTAG) (LTG core: CA, RTG core: CA) | 0
26 | AGGAGGTCCTGGGTTCTAACCTGTTGCCTGG [AGGAGGTCTAG_LTGcore_CC_RTGcore_CC] (site AGGAGGTCTAG) (LTG core: CC, RTG core: CC) | 0.227
27 | AGGAGGTCGTGGGTTCTAACCTGTTGCCTCG [AGGAGGTCTAG_LTGcore_CG_RTGcore_CG] (site AGGAGGTCTAG) (LTG core: CG, RTG core: CG) | 0.384
28 | AGGAGGTCTTGGGTTCTAACCTGTTGCCTAC [AGGAGGTCTAG_LTGcore_CT_RTGcore_GT] (site AGGAGGTCTAG) (LTG core: CT, RTG core: GT) | 0.332
29 | AGGAGGTCTTGGGTTCTAACCTGTTGCCTTA [AGGAGGTCTAG_LTGcore_CT_RTGcore_TA] (site AGGAGGTCTAG) (LTG core: CT, RTG core: TA) | 0.446
30 | AGGAGGTCTTGGGTTCTAACCTGTTGCCTTG [AGGAGGTCTAG_LTGcore_CT_RTGcore_CA] (site AGGAGGTCTAG) (LTG core: CT, RTG core: CA) | 0.336
31 | AGGAGGTGATGGGTTCTAACCTGTTGCCTTC [AGGAGGTCTAG_LTGcore_GA_RTGcore_GA] (site AGGAGGTCTAG) (LTG core: GA, RTG core: GA) | 0.218
32 | AGGAGGTGGTGGGTTCTAACCTGTTGCCTCC [AGGAGGTCTAG_LTGcore_GG_RTGcore_GG] (site AGGAGGTCTAG) (LTG core: GG, RTG core: GG) | 0.0671
33 | AGGAGGTGTTGGGTTCTAACCTGTTGCCTAC [AGGAGGTCTAG_LTGcore_GT_RTGcore_GT] (site AGGAGGTCTAG) (LTG core: GT, RTG core: GT) | 0.0506
34 | AGGAGGTTGTGGGTTCTAACCTGTTGCCTAG [AGGAGGTCTAG_LTGcore_TG_RTGcore_CT] (site AGGAGGTCTAG) (LTG core: TG, RTG core: CT) | 0.42
35 | AGGAGGTTGTGGGTTCTAACCTGTTGCCTCA [AGGAGGTCTAG_LTGcore_TG_RTGcore_TG] (site AGGAGGTCTAG) (LTG core: TG, RTG core: TG) | 0.0756
36 | AGGCCTCACTGGGTTCTAACCTGTTGCCTGT [AGGCCTCCTAG_LTGcore_AC_RTGcore_AC] (site AGGCCTCCTAG) (LTG core: AC, RTG core: AC) | 0.113
37 | AGGCCTCAGTGGGTTCTAACCTGTTGCCTAG [AGGCCTCCTAG_LTGcore_AG_RTGcore_CT] (site AGGCCTCCTAG) (LTG core: AG, RTG core: CT) | 0.0227
38 | AGGCCTCATTGGGTTCTAACCTGTTGCCTAG [AGGCCTCCTAG_LTGcore_AT_RTGcore_CT] (site AGGCCTCCTAG) (LTG core: AT, RTG core: CT) | 0.254
39 | AGGCCTCCCTGGGTTCTAACCTGTTGCCTGG [AGGCCTCCTAG_LTGcore_CC_RTGcore_CC] (site AGGCCTCCTAG) (LTG core: CC, RTG core: CC) | 0.146
40 | AGGCCTCCTTGGGTTCTAACCTGTTGCCTAA [AGGCCTCCTAG_LTGcore_CT_RTGcore_TT] (site AGGCCTCCTAG) (LTG core: CT, RTG core: TT) | 0.109
41 | AGGCCTCCTTGGGTTCTAACCTGTTGCCTAC [AGGCCTCCTAG_LTGcore_CT_RTGcore_GT] (site AGGCCTCCTAG) (LTG core: CT, RTG core: GT) | 1.06
